{
  "source": "patent US7638119B2",
  "about": "“Method of diminishing the symptoms of neurodegenerative disease” (priority 2004, dated 2009)",
  "key": {"[1]": {"test_system": "Nrf2−/−, +/− and +/+ mice", "settings": "for Average lesion size: 0.5M malonate 1 μl intrastriatal, cresyl violet", "experimental": "(§1) Mice were anesthetized with isoflurane. […] One minute after insertion of the Hamilton syringe, the solution was administered over 2 minutes and the needle was withdrawn 2 mm per minute. ARE-hPAP+ mice were injected similarly with 0.25M (1 μl), due to differences in background strain sensitivity.\n(§2) Mice were euthanized with CO2 and perfused with 4% paraformaldehyde. Tissues were post-fixed overnight at 4° C. and cryoprotected in 30% sucrose/PBS. Using a cryostat (Leica), adjacent coronal 20 μm and 50 μm sections were taken for staining with Fluorojade-B and cresyl violet respectively through the entire striatum. […] Lesion size was quantified using the Cavieleri Estimator (Stereoinvestigator; Microbrightfield) on sections 200 μm apart. HPAP histochemistry was measured as previously described (Johnson, D. A., et al., supra, 2002).\nTen days post-injection mice were sacrified and lesion size was measured by cresyl violet staining (FIG. 4A)."}, "[2]": {"test_system": "antioxidant response element (ARE)", "test": "hPAP histochemistry after intrastriatal malonate in ARE-hPAP reporter mice", "assay_type": "in vivo, mouse", "settings": "48 hours after intrastriatal malonate", "experimental": "as §1, §2\nMalonate was injected intrastriatally into ARE-hPAP reporter mice. After 48 hours the mice were euthanized and hPAP histochemistry was performed. […] ARE-activated astrocytes, as visualized by GFAP immunohistochemistry, occur in a similar pattern (FIG. 5C)."}, "Nrf2−/−, +/− or +/+ mice [3]": {"test_system": "Nrf2−/−, +/− or +/+ mice", "test": "Striatal lesions after 3NP (Fluorojade-B, cresyl violet)", "assay_type": "in vivo, mouse", "experimental": "(§3) Nrf2−/−, +/−, or +/+ mice received i.p. injections of 50 mg/kg 3NP or vehicle every 12 hours for a total of 7 injections. 25 mg/ml 3-NP in PBS was prepared fresh and adjusted to pH 7.4 with 10M NaOH. Individual doses were diluted so that injection volume remained constant at 200 μl. Six to eight hours after the last dose mice were sacrificed as below. One Nrf2 KO mouse died prior to the seventh dose and three others had severe symptoms that were classified as stage III according to Gabrielson, et al. (Gabrielson, K. L., et al., Am. J. Pathol. 159:1507-1520, 2001).\nas §2\nAfter mice were sacrificed, brains were stained with cresyl violet or Fluorojade-B (FIG. 3C). Lesions in Nrf2−/− mice were observable using both staining methods; however, they were more apparent in the fluorojade B-stained sections; these sections were used for lesion volume quantification (FIG. 3D)."}, "[4]": {"test_system": "Nrf2+/+ and −/− primary cortical neuronal cultures", "test": "TUNEL staining of primary neuronal cultures treated with 3NP", "assay_type": "cell-based, mouse", "settings": "2 mM 3NP, visual inspection", "experimental": "(§4) For primary cortical neuronal cultures, Nrf2+/− mice were bred and cultures were prepared from individual E15/16 embryos as previously described (Lee, J. M., et al., supra, 2003). Treatments were applied between day 3 and 5 in vitro. Immunostaining for β-III-tubulin and GFAP confirmed no difference in the ratio of neurons to astrocytes between genotypes (data not shown). HPAP+ cultures were prepared similarly. HPAP activity and histochemistry in primary cultures was measured as previously described (Johnson, D. A., et al., supra, 2002).\n(§5) LDH release into medium was measured using the CytoTox96 Non-Radioactive Cytotoxicity Assay kit (Promega) according to the manufacturers instructions. LDH activity was measured on both media and lysed cells. After normalizing to non-treated wells, the percentage of LDH in the media was calculated. Each measurement was made in at least triplicate on separate cultures from three individual pups. Terminal deoxynucleotidyltransferase-mediated dUTP nick end labeling (TUNEL; Roche Applied Science) staining was also performed according to the manufacturers instructions on cultures from at least two different pups per genotype.\n(§6) In order to examine the differential sensitivity of Nrf2−/− neurons to complex II inhibition, Nrf2+/+ and −/− primary cortical neuronal cultures (3 DIV) were treated with 3NP for 48 and assessed for LDH release. […]"}, "Nrf2−/−, +/− or +/+ mice [5]": {"test_system": "Nrf2−/−, +/− or +/+ mice", "test": "Rotarod performance after 3NP", "assay_type": "in vivo, mouse", "settings": "Nrf2−/− mice versus 3NP-injected Nrf2+/+ and heterozygous mice, four hours after last dose, 5 rpm", "experimental": "To assess sensorimotor deficits in 3NP-treated animals, mice were trained up to 5 times per day on the rotarod (Columbus Instruments) for three days prior to 3-NP administration (Fernagut, P. O., et al., Neuroscience 114:1005-1017, 2002). All mice were able to achieve 180 sec (5 rpm) on the first trial by day three. Rotarod function was measured prior to the first dose and following the last dose of 3-NP.\nFour hours after the last dose, motor skills were assessed by rotarod performance. Up to three trials were given for each mouse and the longest time spent on the rotarod was used for analysis. All PBS-injected mice were able to maintain 5 rpm for 180 sec (the maximum time allowed)."}, "[6]": {"test_system": "antioxidant response element (ARE)", "test": "hPAP reporter activation after 3NP in ARE-hPAP primary neuronal cultures", "assay_type": "cell-based, mouse", "settings": "ARE-hPAP+ primary cortical neuronal cultures, neurotoxic doses, 48 hours", "text": "Nrf2−/− and ARE-hPAP transgenic reporter mice were bred separately. Nrf2−/− mice were created by targeted disruption of the Nrf2 gene (Chan, K., et al., Proc. Natl. Acad. Sci. USA 93:13943-13948, 1996). ARE-hPAP reporter mice were created by insertion of a 51 basepair segment of rat NAD(P)H Quinone Oxidoreductase-1 promoter containing the core ARE into a minimal promoter upstream of the heat stable human Placental Alkaline Phosphatase (hPAP) (Johnson, D. A., et al., J. Neurochem. 81:1233-1241, 2002).\nas §4\nThis activation was localized to the surviving astrocytes (FIG. 2B) as visualized by vector red staining and GFAP co-labeling."}, "Nrf2−/−, +/− or +/+ mice [7]": {"test_system": "Nrf2−/−, +/− or +/+ mice", "test": "Systemic 3NP administration: phenotypic scoring, death and weight loss", "assay_type": "in vivo, mouse", "experimental": "as §3\nWe posited that this increased sensitivity would also extend to an in vivo model. 18 week-old mice were dosed every 12 hours with 50 mg/kg 3NP. After seven doses, a clear differential sensitivity had emerged based on the subjective classification described by Gabrielson, et al. (Gabrielson, K. L., et al., supra, 2001). […] No Nrf2+/+ or Nrf2+/− mice rated above stage 1.\nTable 1: Phenotypic scoring of mice after 3NP administration. Nrf2+/+, Nrf2+/− and Nrf2−/− mice were scored Stage 0, I, II or III based on the development of clinical symptoms."}, "[8]": {"test_system": "Nrf2+/+ and −/− primary cortical neuronal cultures", "test": "LDH release cytotoxicity in primary neuronal cultures treated with 3NP", "assay_type": "cell-based, mouse", "settings": "Nrf2−/− versus wild-type cultures, all doses, treated for 48", "experimental": "as §4, §5, §6"}, "[9]": {"settings": "Nrf2−/− mice, 50 mg/kg i.p. every 12 hours, 7 injections"}},
  "note": "Where two headings read alike, the source gives them in different places.",
  "data": [
    {"smiles": "O=C(O)CC(=O)O", "note": "[malonate]", "values": [
      {"measurement": "Average lesion size", "setting": "[1]; Nrf2+/+ mice, ten days post-injection", "value": "0.03±0.07", "unit": "mm^3"},
      {"measurement": "Average lesion size", "setting": "[1]; Nrf2+/− mice, ten days post-injection", "value": "0.16±0.07", "unit": "mm^3"},
      {"measurement": "Increase of average lesion size", "setting": "[1]; Nrf2−/− versus Nrf2+/+ mice", "value": "over 21 fold"},
      {"measurement": "Increase of average lesion size", "setting": "[1]; Nrf2−/− versus Nrf2+/− mice", "value": 4, "unit": "fold"},
      {"measurement": "Overt behavioral phenotype", "setting": "[1]; all genotypes, ten days post-injection", "value": "None of the mice exhibited an overt behavioral phenotype"},
      {"measurement": "hPAP activity", "setting": "[2]", "value": "present near the edges of the lesion"}
    ]},
    {"smiles": "O=C(O)CC[N+](=O)[O-]", "note": "[3NP, 3-nitropropionic acid]", "values": [
      {"measurement": "Mice with measurable lesions", "setting": "Nrf2−/−, +/− or +/+ mice [3]; Nrf2+/+ mice", "value": "No lesions"},
      {"measurement": "Mice with measurable lesions", "setting": "Nrf2−/−, +/− or +/+ mice [3]; Nrf2+/− mice", "value": "only one"},
      {"measurement": "Mice with measurable lesions", "setting": "Nrf2−/−, +/− or +/+ mice [3]; Nrf2−/− mice", "value": "Five of the eight"},
      {"measurement": "TUNEL-positive neurons", "setting": "[4]; Nrf2+/+ neurons", "value": "significantly lower percentage"},
      {"measurement": "TUNEL-positive neurons", "setting": "[4]; Nrf2−/− neurons", "value": "Nearly all"},
      {"measurement": "Rotarod function", "setting": "Nrf2−/−, +/− or +/+ mice [5]", "value": "significantly reduced function"},
      {"measurement": "hPAP expression", "setting": "[6]", "value": "significantly increased"},
      {"measurement": "Mice scored Stage 0", "setting": "Nrf2−/−, +/− or +/+ mice [7]; Nrf2+/+ mice, 50 mg/kg i.p. every 12 hours, 7 injections", "value": 5},
      {"measurement": "Mice scored Stage 0", "setting": "Nrf2−/−, +/− or +/+ mice [7]; Nrf2+/− mice, 50 mg/kg i.p. every 12 hours, 7 injections", "value": 4},
      {"measurement": "Mice scored Stage 0", "setting": "Nrf2−/−, +/− or +/+ mice [7]; [9]", "value": 1},
      {"measurement": "Mice scored Stage I", "setting": "Nrf2−/−, +/− or +/+ mice [7]; [9]", "value": 3},
      {"measurement": "Mice scored Stage II", "setting": "Nrf2−/−, +/− or +/+ mice [7]; [9]", "value": 1},
      {"measurement": "Weight loss, percent of starting weight", "setting": "Nrf2−/−, +/− or +/+ mice [7]; Nrf2−/− mice, after seven doses of 50 mg/kg", "value": "12±1.9", "unit": "%"},
      {"measurement": "Death", "setting": "Nrf2−/−, +/− or +/+ mice [7]; Nrf2−/− mice, prior to the seventh dose of 50 mg/kg", "value": "one mouse died"},
      {"measurement": "LDH release", "setting": "[8]", "value": "greater in the Nrf2−/− cultures than in wild-type cultures"}
    ]}
  ]
}
